These are literature values, as cited in US20140107053A1, “APPLES WITH HIGH POLYPHENOLIC CONTENT” (CORESSENCE LIMITED, priority 2006, published 2014).

The conditions of data set [1]: indicated by Tmax values in human studies.
For data set [2] the following is noted: compared to (−)-epicatechin monomers (Shoji et al. 2006).

As to `Oc1cc(O)c2c(c1)O[C@H](c1ccc(O)c(O)c1)[C@H](O)[C@H]2c1c(O)cc(O)c2c1O[C@H](c1ccc(O)c(O)c1)[C@@H](O)C2` [Apple B1, epicatechin-(4β-8)-catechin], the “detection in human plasma” value was “detected at low levels”. For the compound `Oc1cc(O)c2c(c1)O[C@H](c1ccc(O)c(O)c1)[C@H](O)[C@H]2c1c(O)cc(O)c2c1O[C@H](c1ccc(O)c(O)c1)[C@H](O)C2` [Apple B2, epicatechin-(4β-8)-epicatechin], the “detection in human plasma” value is recorded as “detected at low levels”. As to `Oc1cc(O)c2c(c1)O[C@H](c1ccc(O)c(O)c1)[C@H](O)[C@H]2c1c(O)cc2c(c1O)C[C@@H](O)[C@@H](c1ccc(O)c(O)c1)O2` [Apple B5, epicatechin-(4β-6)-epicatechin], under “after chocolate consumption (Holt et al. 2002)”, the detection in plasma entry is “could not be detected”. On to `O.Oc1cc(O)c2c(c1)O[C@H](c1ccc(O)c(O)c1)[C@@H](O)C2` [catechin], for which the site of absorption entry in data set [1] was “absorbed mainly in the small intestine”. For the same compound, the bioavailability entry in data set [2] was “relatively low bioavailability”.

Take epicatechin: the site of absorption result in data set [1] was “absorbed mainly in the small intestine”.
